{"source": "paper PMC9284491", "about": "(Nature Communications, 2022)", "key": {"Ki67": {"system": "Ki67", "experiment": "Paired tumor biopsy IHC, Ki67 positive cells", "assay_type": "in vivo, human", "conditions": "cycle 2, day 28; n = 7; range −30 to +30%", "method": "Staining was evaluated in tumor cells only.\nResults were analyzed using descriptive statistics."}, "[1]": {"experiment": "Dose-limiting toxicities, MTD and RP2D in dose escalation", "assay_type": "in vivo", "method": "During dose escalation, treatment was initiated on day 1 in the fasting state in cohorts starting at a dose of 20 mg orally QD, escalating in subsequent cohorts to planned doses of 50–600 mg. For all cohorts, treatment was omitted on day 2, was administered on day 3 after a moderate fat breakfast, and was administered from day 4 in the fasting state. Dose escalation proceeded based on the occurrence of DLT together with target saturation by ^18F-FES PET/CT scans[45] and pharmacokinetic parameters during the first 28-day cycle, and according to a 3 + 3 design. […] During dose expansion, patients were treated at the RP2D. Patients were treated until disease progression, unacceptable toxicity, withdrawal of patient consent, or other reasons determined by the investigator (poor compliance with the protocol or intercurrent illness). […]\nAnalysis populations and associated statistical methods. […] Results were analyzed using descriptive statistics. […]"}, "[2]": {"system": "ER activity signature (87 genes)", "experiment": "ER activation score by GSVA of RNA-seq from paired tumor biopsies", "assay_type": "in vivo, human", "from_the_text": "Total RNA was extracted from FFPE tissue (slides of 10 μm). A targeted-enrichment RNA-seq approach was applied utilizing KAPA RNA HyperPrep and whole exome […] kits (Roche) followed by the generation of sequencing reads with NextSeq 500 (Illumina). RNA-seq FASTQ files were processed with STAR aligner and Cufflinks to generate gene-level fragments per kilobase of transcript per million mapped reads (FPKM)[34],[47],[48]. Those FPKM values were converted to the gene-level estimation of expression in transcripts per million (TPM). The TPM data were then quantile-normalized and log2-transformed. GSVA was employed to calculate the ER activation score by using the ER activity signature (87 genes)[31]. […] Results were analyzed using descriptive statistics."}, "ER": {"system": "ER", "parameters": "method as in PMID 31721572", "conditions": "in vitro, preclinical, cited from earlier work"}}}
{"smiles": "O=C(O)c1ccc2c(c1)CCCC(c1ccc(Cl)cc1Cl)=C2c1ccc(O[C@H]2CCN(CCCF)C2)cc1", "note": "[amcenestrant, 6-(2,4-Dichlorophenyl)−5-[4-[(3S)−1-(3-fluoropropyl)pyrrolidin-3-yl]oxyphenyl]−8,9-dihydro-7H-benzo[7]annulene-2-carboxylic acid]", "values": [{"measurement": "median change from screening in percentage of Ki67 positive cells", "setting": "Ki67", "result": "−8", "unit": "%"}, {"measurement": "maximum tolerated dose (MTD)", "setting": "[1]; Part A, 20-600 mg QD", "result": "not reached"}, {"measurement": "dose-limiting toxicities", "setting": "[1]; in vivo", "result": "No dose-limiting toxicities occurred"}, {"measurement": "ER activation score by GSVA, median change from screening", "setting": "[2]; cycle 2, day 28, n = 5, range −1.1 to +0.4", "result": "−0.4"}, {"measurement": "ER activation score, median change from screening", "setting": "[2]; patients who showed clinical benefit, n = 4, range −1.1 to 0", "result": "−0.6"}, {"measurement": "ER activation score, change from screening", "setting": "[2]; the patient with no clinical benefit", "result": "+0.4"}, {"measurement": "ER degradation efficacy", "setting": "ER", "result": 98, "unit": "%"}, {"measurement": "EC50", "setting": "ER; read-out: ER degradation potency", "result": 0.2, "unit": "nM"}]}
